Where a name gives a salt, the structure may show the parent alone. Read-outs that look alike come from different tables or passages of the source.
Columns and labels:
[1] = test system: influenza virus A/Puerto Rico/8/34 (IAV); type: cell-based
A. fumigatus [2] = test: Hyphae formation of A. fumigatus in a human cell-free system, DMEM with 10% FCS (FIG. 4); type: cell-based, Aspergillus fumigatus; conditions: 10 h
Experimental: (A) Procedure for the treatment method: conidia of a GFP-expressing A. fumigatus strain [5*10^6 conidia/well] was sown on cover slips in 24-well plates and incubated with solvent (H2O) or with the specified concentrations of voriconazole, ProcCluster® (B-C) or procaine HCl (D-E) in DMEM with 10% FCS at 37° C., 5% CO2, for 10 h. Subsequently, the fungi were fixed (3.7% formaldehyde in PBS, 1 h, room temperature) and applied to microscope slides with fluorescent dye solution (Agilent, Santa Clara, CA, USA). (B, D) The growth of A. fumigatus was visualized via internal GFP expression. The scale of the immunofluorescence images corresponds to 100 μm. Detection of immunofluorescence and imaging and image processing were effected with an Axio Observer.Z1 microscope (Zeiss, Jena, Germany) and the Fiji V 1.52b software (github.com/fiji/fiji). (C, E) Fungus size was determined by means of the particle counter software (github.com/chko90/particle counter). Five immunofluorescence images were taken for each sample. The fungus sizes ascertained were normalized and the solvent control was set at 100%. Statistical significance was ascertained by a one-way ANOVA test with Dunnett multiple comparison test using GraphPad Prism 9.2 (Graphpad Software, Boston, USA) (p<0.05 was considered to be the level of statistical significance).

A. fumigatus [3] = test: Hyphae formation of GFP-expressing A. fumigatus conidia in DMEM/BA medium (FIG. 1); type: cell-based, Aspergillus fumigatus; conditions: procaine HCl 0.31 or 1.25-10 mM, 10 h, 37° C.
Experimental: (A) Procedure for the treatment method: conidia of a green-fluorescence protein (GFP)-expressing A. fumigatus strain [5*10^6 conidia/well] were sown on cover slips in 24-well plates in 300 μl of DMEM/BA medium (0.2% BSA, 1 mM MgCl2 and 0.9 mM CaCl2) and, in each case supplemented with solvent (H2O), procaine HCl [0.31 (B) or 1.25 (C)—10 mM] or voriconazole [0.2 μg ml^−1], incubated at 37° C., 5% CO2, for 10 h. Subsequently, the fungi were fixed (3.7% formaldehyde in PBS, 30 min, room temperature) and applied to microscope slides with the aid of fluorescent dye solution (Agilent, Santa Clara, CA, USA). The hyphae size was analyzed by (B) Axio Observer.Z1 microscope (Zeiss, Jena, Germany) and the Fiji V 1.52b software (github.com/fiji/fiji). (C) Fungus size was calculated with the particle counter software (github.com/chko90/particle counter). The data are a representation of four experiments (B) or the mean+SD of four experiments with two technical samples in each case (C). Statistical significance was calculated with GraphPad Prism 9.2 (Graphpad Software, Boston, USA) using the one-way ANOVA Dunnett multiple comparison test. P values are indicated by asterisks *p<0.05.

A. fumigatus [4] = type: cell-based, Aspergillus fumigatus
A. fumigatus [5] = type: cell-based, Aspergillus fumigatus; remark: listed apart in the source
[6] = Solubility in octanol, content by UV/VIS spectroscopy and pH; type: physicochemical; conditions: for pH: solubility test in octanol
Experimental: Solubility tests in octanol were conducted, and the content in the organic phase was examined by UV/VIS spectroscopy, as were the pH values.

[7] = test system: influenza virus A/Puerto Rico/8/34; type: cell-based

SMILES | virus load [1] | hyphae formation (A. fumigatus [2]) | hyphae formation by A. fumigatus (A. fumigatus [3]) | hyphae formation (A. fumigatus [4]) | pathogenic load of A. fumigatus (A. fumigatus [5]) | Content (solubility in octanol, content in the organic phase) ([6]; octanol, UV/VIS spectroscopy, hydrochloride) | Content (solubility in octanol, content in the organic phase) ([6]; octanol, UV/VIS spectroscopy, listed as Procaine HCl, hydrochloride) | pH ([6]; hydrochloride) | pathogenic load of influenza viruses [7] | Content (solubility in octanol, content in the organic phase) [6] | pH [6] | membrane permeability concluded from solubility in the organic phase ([6]; octanol) | Content (solubility in octanol, content in the organic phase) ([6]; octanol, UV/VIS spectroscopy)
CCN(CC)CCOC(=O)c1ccc(N)cc1 [Procaine hydrochloride, procaine hydrochloride] | reduced virus load | reduced hyphae formation | reduces hyphae formation | reduced | reduced | 8% | 8% | 4.5 | reduced | – | – | – | –
CCN(CC)CCOC(=O)c1ccc(N)cc1 [Procaine, 2-(N,N-diethylamino)ethyl 4-aminobenzoate] | – | – | – | – | – | – | – | – | – | completely dissolved (100%) | 8.5 | – | –
CCN(CC)CCOC(=O)c1ccc(N)cc1.O=C(O)O [Carbonic acid adduct of procaine] | – | – | – | – | – | – | – | – | – | – | 7.5 | membrane-permeable | 74%

Source: patent publication US20250302792A1, “ACTIVE SUBSTANCES FOR MEDICAL USE” (inflamed pharma GmbH, priority 2022, published 2025)
